# In publication PMC5423902, “CXCL9-Derived Peptides Differentially Inhibit Neutrophil Migration In Vivo through Interference with Glycosaminoglycan Interactions” (Frontiers in Immunology, 2017):
# Key:
# [1] = test system: CXCL8-induced neutrophil migration; test: CXCL8-induced neutrophil migration to the knee cavity; assay type: in vivo, mouse (C57BL/6); settings: 66 µg peptide i.v., 1 µg CXCL8 intra-articular, C57BL/6, 3 h, n ≥ 5, Figure 5
# Description: In vivo neutrophil extravasation to the peritoneal or the knee cavity was examined, respectively, by intraperitoneal or intra-articular injection, of endotoxin-free recombinant CXCL8(1-77) (PeproTech) or vehicle (PBS) in female NMRI or C57BL/6 mice, as described previously ([42], [48]). Simultaneously, synthetic CXCL9 peptide was co-injected either intraperitoneally or injected intravenously. After 2 h (peritoneal cavity) or 3 h (knee cavity), mice were sacrificed. The peritoneal cavity was washed with saline enriched with 2% FCS and 20 U/ml heparin and total leukocyte counts were determined. For the preparation of cytospins, 10^5 cells were used and absolute number and percentage of neutrophils in the lavages were determined in duplicate independently by two researchers by differential microscopic counting. […] The number of total leukocytes was determined by counting leukocytes in a Neubauer chamber after staining with Turk’s solution. […]
# Figure 5 CXCL9(74-93) inhibits CXCL8-induced but not monosodium urate (MSU) crystal-induced neutrophil migration to the knee cavity. […] Simultaneously, 66 µg of CXCL9(74-93) was injected intravenously and 3 h post injection the number of total cells (A) and neutrophils (B) were evaluated by washing the cavity and differentially counting the leukocyte subtypes on May-Grunwald-Giemsa-stained cytospins. […]
# [2] = test system: neutrophil adhesion to the endothelium; test: CXCL8-induced neutrophil adhesion in the murine cremaster muscle model; assay type: in vivo, mouse (C57Bl/6J); settings: 108 µg peptide i.v., Figure 8
# Description: Mice were anesthetized by intraperitoneal injection of 200 mg/kg ketamine (Bayer Inc. Animal Health) and 10 mg/kg xylazine (Bimeda-MTC). After anesthesia, the right jugular vein was cannulated for maintenance of anesthesia and to permit the delivery of the fluorescence-labeled antibodies. Mice were injected intravenously (via jugular vein) with either saline or CXCL9(74-103) 5 min prior to an intrascrotal injection of 1 or 3 µg CXCL8. The animals were placed on a water-heated operating table to maintain body temperature at ~37°C. The depth of anesthesia was controlled by regularly monitoring peripheral reflexes. The cremaster muscle was prepared as previously described ([50]). […] Single unbranched cremasteric venules with a diameter of ~25–40 μm were selected and their blood flow was recorded during a 5 min period. […] A 512 × 512 pixel back-thinned EMCCD camera (C9100-13, Hamamatsu, Bridgewater, NJ, USA) was used for fluorescence detection. […] Images captured using the spinning disk were processed and analyzed in Volocity 4.20. Periods of 5 min/field of view were recorded at 45, 60, and 90 min after CXCL8 administration. A neutrophil was considered to be adherent if it remained stationary for at least 30 s, and total neutrophil adhesion was quantified as the number of adherent cells within a 100-µm length of venule. […]
# herpes simplex virus-1 = settings: cited from earlier work
# From the text: (§1) In several inflammatory diseases, an enhanced expression of chemokines leads to the pathological and continuous accumulation of activated leukocytes in tissues and consequently tissue damage. Thus, a reduction of chemokine activity at sites of excessive inflammation is needed. Although a lot of efforts were invested in the development of small molecule chemokine receptor antagonists, since the discovery of chemokine receptors as members of the GPCR family about two decades ago, success stories are limited to a few drugs that entered the market ([66]). Recently, inhibition of chemokine–GAG inte ...
# dengue virus = settings: cited from earlier work
# From the text: as §1
# [3] = test system: respiratory syncytial virus; settings: cited from earlier work
# From the text: as §1
Substance,neutrophils in the joint upon CXCL8 ([1]; control 13.3 × 10^3),percentage of neutrophils in the joint upon CXCL8 ([1]; control 60.5%) [%],adherence of neutrophils to the endothelium ([2]; 1 µg CXCL8 intrascrotal),adherence of neutrophils to the endothelium ([2]; 3 µg CXCL8 intrascrotal),inhibition of viral infection of cells (herpes simplex virus-1),inhibition of viral infection of cells (dengue virus),inhibition of viral infection of cells [3]
"74KKKQKNGKKHQKKKVLKVRK93 [CXCL9(74-93), COOH-terminal peptide of CXCL9 lacking the 10 COOH-terminal amino acids of CXCL9(74-103)]",0.67 × 10^3 neutrophils,17.5,,,,,
"74KKKQKNGKKHQKKKVLKVRKSQRSRQKKTT103 [CXCL9(74-103), COOH-terminal peptide of CXCL9]",,,reduced the adherence of neutrophils to the endothelium significantly,reduced the adherence of neutrophils to the endothelium significantly,able to inhibit viral infection of cells,able to inhibit viral infection of cells,able to inhibit viral infection of cells
